For this assay, the target named is ROCK2 (Homo sapiens, UniProt O75116). Put plainly: ROCK2 assay (Caliper LABCHIP peptide phosphorylation, kinase inhibition). The format is biochemical. Particulars: 5 μM ATP, 1.5 μM peptide substrate. On the procedure: The effectiveness of compounds of the present invention as ROCK inhibitors can be determined in a 30 μL assay containing 20 mM HEPES, pH 7.5, 20 mM MgCl2, 0.015% Brij-35, 4 mM DTT, 5 μM ATP and 1.5 μM peptide substrate (FITC-AHA-AKRRRLSSLRA-OH) (SEQ ID NO. 1). Compounds were dissolved in DMSO so that the final concentration of DMSO was <2%, and the reaction was initiated with Rho kinase variants. After incubation, the reaction was terminated by the addition of EDTA and the phosphorylated and non-phosphorylated peptides separated using a LABCHIP® 3000 Reader (Caliper Life Sciences). […] Compounds were tested in dose-response format, and the inhibition of kinase activity was calculated at each concentration of compound. The inhibition data were fit using a curve-fitting program to determine the IC50; i.e., the concentration of compound required to inhibit 50% of kinase activity.
Sequence of ROCK2 (O75116 whole entry, species assumed): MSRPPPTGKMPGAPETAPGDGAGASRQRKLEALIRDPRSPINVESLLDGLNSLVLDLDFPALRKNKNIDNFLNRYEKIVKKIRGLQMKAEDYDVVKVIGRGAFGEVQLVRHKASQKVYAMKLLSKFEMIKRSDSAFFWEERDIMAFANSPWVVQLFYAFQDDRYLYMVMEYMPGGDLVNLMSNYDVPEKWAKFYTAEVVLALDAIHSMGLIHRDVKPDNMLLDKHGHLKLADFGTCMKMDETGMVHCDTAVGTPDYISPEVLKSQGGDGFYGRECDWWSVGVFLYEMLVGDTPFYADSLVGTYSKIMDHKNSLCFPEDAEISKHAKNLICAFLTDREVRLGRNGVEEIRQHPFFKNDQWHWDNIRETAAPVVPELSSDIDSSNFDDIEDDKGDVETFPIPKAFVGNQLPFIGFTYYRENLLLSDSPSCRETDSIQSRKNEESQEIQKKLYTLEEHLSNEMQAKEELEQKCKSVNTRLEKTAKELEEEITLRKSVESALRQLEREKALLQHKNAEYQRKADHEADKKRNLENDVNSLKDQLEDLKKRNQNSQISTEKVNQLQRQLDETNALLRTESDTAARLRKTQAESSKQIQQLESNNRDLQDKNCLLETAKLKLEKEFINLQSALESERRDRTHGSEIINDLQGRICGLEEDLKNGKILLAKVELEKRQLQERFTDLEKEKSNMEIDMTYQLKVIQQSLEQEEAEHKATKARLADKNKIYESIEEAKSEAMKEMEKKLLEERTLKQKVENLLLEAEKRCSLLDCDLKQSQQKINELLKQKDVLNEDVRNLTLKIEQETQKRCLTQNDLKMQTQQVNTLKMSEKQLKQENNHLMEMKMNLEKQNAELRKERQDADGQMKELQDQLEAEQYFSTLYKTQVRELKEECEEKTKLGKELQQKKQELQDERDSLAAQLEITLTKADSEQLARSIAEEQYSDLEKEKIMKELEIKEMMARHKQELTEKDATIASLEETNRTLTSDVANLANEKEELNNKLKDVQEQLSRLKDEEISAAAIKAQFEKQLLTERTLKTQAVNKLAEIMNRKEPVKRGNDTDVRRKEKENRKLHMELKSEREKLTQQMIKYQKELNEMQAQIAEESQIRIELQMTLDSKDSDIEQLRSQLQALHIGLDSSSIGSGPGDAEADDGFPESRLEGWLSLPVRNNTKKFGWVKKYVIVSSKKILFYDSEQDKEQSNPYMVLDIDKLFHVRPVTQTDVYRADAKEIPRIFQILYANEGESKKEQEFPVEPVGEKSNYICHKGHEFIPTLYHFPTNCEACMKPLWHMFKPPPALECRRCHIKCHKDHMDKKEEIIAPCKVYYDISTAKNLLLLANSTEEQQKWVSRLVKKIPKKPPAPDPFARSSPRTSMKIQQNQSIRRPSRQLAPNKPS
Representative Examples were tested in the ROCK2 assay described above and found having ROCK2 inhibitory activity. The ranges of the ROCK2 IC50 values are as follows: ROCK2 IC50: ++++ (<10 nM) +++ (10-100 nM) ++ (100-500 nM) + (500-2000 nM)

SMILES strings stand for the structures.

Regarding `O=C1OCC(c2ccccc2)N1c1ccc(-c2n[nH]c(=O)c3ccccc23)cc1` (stereo not drawn) [Example 14, 4-[4-(2-oxo-4-phenyl-1,3-oxazolidin-3-yl)phenyl]-1,2-dihydrophthalazin-1-one], the IC50 was in the range of 0.1 to 0.5 µM.
Molecule `O=C1OC(c2ccccc2)CN1c1ccc(-c2n[nH]c(=O)c3ccccc23)cc1` (stereo not drawn) [Example 15, 4-[4-(2-oxo-5-phenyl-1,3-oxazolidin-3-yl)phenyl]-1,2-dihydrophthalazin-1-one] gave an IC50 of 0.01 to 0.1 µM.
Take `CC(C)(C)OC(=O)NCC1CN(c2ccc(-c3n[nH]c(=O)c4ccccc34)cc2)C(=O)O1` (stereo not drawn) [Example 16, tert-butyl N-({2-oxo-3-[4-(4-oxo-3,4-dihydrophthalazin-1-yl)phenyl]-1,3-oxazolidin-5-yl}methyl)carbamate]: the IC50 was in the range of 0.5 to 2 µM.
`CCCC1CN(c2ccc(-c3n[nH]c(=O)c4ccccc34)cc2)C(=O)O1` (stereo not drawn) [Example 17, 4-[4-(2-oxo-5-propyl-1,3-oxazolidin-3-yl)phenyl]-1,2-dihydrophthalazin-1-one] had an IC50 of 0.1 to 0.5 µM.
`O=C(NCC1CN(c2ccc(-c3n[nH]c(=O)c4ccccc34)cc2)C(=O)O1)c1ccccc1` (stereo not drawn) [Example 18, N-({2-oxo-3-[4-(4-oxo-3,4-dihydrophthalazin-1-yl)phenyl]-1,3-oxazolidin-5-yl}methyl)benzamide] gave an IC50 of 0.1 to 0.5 µM.
In turn, `O=C1OC(c2ccc(F)cc2)CN1c1ccc(-c2n[nH]c(=O)c3ccccc23)cc1` (stereo not drawn) [Example 19, 4-{4-[5-(4-fluorophenyl)-2-oxo-1,3-oxazolidin-3-yl]phenyl}-1,2-dihydrophthalazin-1-one] came in with an IC50 of 0.5 to 2 µM.
With `CS(=O)(=O)c1ccc(CC2CN(c3ccc(-c4n[nH]c(=O)c5ccccc45)cc3)C(=O)O2)cc1` (stereo not drawn) [Example 20, 4-(4-{5-[(4-methanesulfonylphenyl)methyl]-2-oxo-1,3-oxazolidin-3-yl}phenyl)-1,2-dihydrophthalazin-1-one] the figure was 0.1 to 0.5 µM; with `O=C1OC2CCCCC2N1c1ccc(-c2n[nH]c(=O)c3ccccc23)cc1` (stereo not drawn) [Example 21, 4-[4-(2-oxo-octahydro-1,3-benzoxazol-3-yl)phenyl]-1,2-dihydrophthalazin-1-one], 0.5 to 2 µM; with `O=C1OC(C(O)(c2ccccc2)C(F)(F)F)CN1c1ccc(-c2n[nH]c(=O)c3ccccc23)cc1` (stereo not drawn) [Example 22, 4-{4-[2-oxo-5-(2,2,2-trifluoro-1-hydroxy-1-phenylethyl)-1,3-oxazolidin-3-yl]phenyl}-1,2-dihydrophthalazin-1-one], 0.5 to 2 µM.
Regarding `C[C@@H]1OC(=O)N(c2ccc(-c3n[nH]c(=O)c4ccccc34)cc2)[C@@H]1c1ccccc1` [Example 23, 4-{4-[(4R,5S)-5-methyl-2-oxo-4-phenyl-1,3-oxazolidin-3-yl]phenyl}-1,2-dihydrophthalazin-1-one], the IC50 fell in the range of 0.5 to 2 µM.
For `O=C1C(N2CCOCC2)CCN1c1ccc(-c2n[nH]c(=O)c3ccccc23)cc1` (stereo not drawn) [Example 24, 4-{4-[3-(morpholin-4-yl)-2-oxopyrrolidin-1-yl]phenyl}-1,2-dihydrophthalazin-1-one], the IC50 lay in the range of 0.5 to 2 µM.
With `O=C1C(NCc2ccccc2)CCN1c1ccc(-c2n[nH]c(=O)c3ccccc23)cc1` (stereo not drawn) [Example 25, 4-{4-[3-(benzylamino)-2-oxopyrrolidin-1-yl]phenyl}-1,2-dihydrophthalazin-1-one], the IC50 was 0.5 to 2 µM.
Molecule `COc1cccc(NC2CCN(c3ccc(-c4n[nH]c(=O)c5ccccc45)cc3)C2=O)c1` (stereo not drawn) [Example 26, 4-(4-{3-[(3-methoxyphenyl)amino]-2-oxopyrrolidin-1-yl}phenyl)-1,2-dihydrophthalazin-1-one] came in with an IC50 of 0.01 to 0.1 µM.
The value for `O=C1C(Nc2ccccc2)CCN1c1ccc(-c2n[nH]c(=O)c3ccccc23)cc1` (stereo not drawn) [Example 27, 4-{4-[2-oxo-3-(phenylamino)pyrrolidin-1-yl]phenyl}-1,2-dihydrophthalazin-1-one] was 0.01 to 0.1 µM; that for `O=C1C(NC2CCCC2)CCN1c1ccc(-c2n[nH]c(=O)c3ccccc23)cc1` (stereo not drawn) [Example 28, 4-{4-[3-(cyclopentylamino)-2-oxopyrrolidin-1-yl]phenyl}-1,2-dihydrophthalazin-1-one] was 0.5 to 2 µM.

Values taken from US10730858B2, “Lactam, cyclic urea and carbamate, and triazolone derivatives as potent and selective rock inhibitors” (BRISTOL-MYERS SQUIBB COMPANY, priority 2016, dated 2020).
